Like-named read-outs stand apart in the source and are kept apart here.
Assays:
c-Myc = test: Knockdown of c-Myc expression in Caco-2 cells (Western blot); format: cell-based, human; settings: 200 nM, without transfection reagent, 3 days
Experimental: FIG. 18. Examples of representative measurement data of protein expression. Western blot was performed to measure the suppression of c-Myc expression by LCFA-conjugated miR-34a mimic 3 days after Caco-2 cells were treated. c-Myc is a known target of miR-34a. Its expression level was detected both after a short exposure (short expo) and a relatively long exposure (long expo).
Caco-2 cells were seeded in 6-well cell culture plates, and treated (without any transfection reagent) with 200 nM free scramble siRNA (Scr), 200 nM free miR-34a mimic (miR-34a), or 200 nM LCFA-conjugated miR-34a (FA-miR-34a), respectively. Cells were harvested 3 days later, and lysed to prepare protein samples. Equal amount of protein samples was loaded in 10% SDS-polyacrylamide gels for Western blot analysis. The c-Myc protein was detected with an anti-c-Myc antibody. c-Myc expression levels were detected after both a short-time exposure (short expo) and relatively long-time exposure (long expo). β-Actin was served as an expression control (FIG. 18).

[1] = Intraperitoneal glucose tolerance test, Ex4-Lys^27-LCFA in acid-neutralized mice; format: in vivo, male C57BL/6 mice
Experimental: FIG. 11. […] Each mouse was treated orally with 100 μL 1M NaHCO3 to neutralize acid in the gastric fluid. […] The mice were then challenged with intraperitoneal injection of 2 g/kg glucose 1 hour after treatment.
(§1) Intraperitoneal glucose tolerance test (GTT) was performed in male C57BL/6 mice. Briefly, 6 to 12-week-old male C57BL/6 mice were fasted overnight and treated by oral gavage with 100 μL 1M NaHCO3 to neutralize acid in the gastric fluid. One minute later, the mice were treated with PBS, 100 μg Ex4, or 100 μg Ex4-Lys^27-LCFA by oral gavage, respectively. All mice were then treated with 2 g/kg glucose by intraperitoneal injection 1 hour later. Blood samples were collected to measure blood glucose levels. Area under the curve (AUC) of blood glucose was calculated to evaluate hypoglycemic response to each treatment (FIG. 11).

Caco-2 cells = test: Uptake of fatty acid-Ex4 conjugate by Caco-2 cells; format: cell-based, human; settings: Alexa594-labeled conjugates; incubation for one hour
Experimental: FIG. 10. Examples of representative results of Caco-2 cell uptake. The fatty acid-conjugated Ex4 molecules were incubated with Alexa594 (fluorescent dye)-labeled Ex4-Lys^27-LCFA having 12, 16 and 18 carbon fatty acids (C12, C16, C18, respectively) and Ex4-Lys^27-SCFA (short chain fatty acid having 8 carbons, shown as C8) and were taken up by the cells. Levels of uptake were determined based on fluorescent intensity (MFI) inside the cells.
Coco-2 cells were seeded in cell culture plates. Cells were incubated with either fluorescently labeled Ex4-Lys^27-SCFA (C8) or one of the fluorescently labeled Ex4-Lys^27-LCFA having a C12, C16 and C18 LCFA. After incubation for one hour, cells were washed with PBS to remove fatty acid-conjugated Ex4. A plate reader was applied to measure fluorescent intensity in each well in the cell culture plate, and the results were compared (FIG. 10).

[2] = Plasma ibrutinib level by HPLC after oral gavage; parameters: species or system mice; settings: mouse, in vivo
Experimental: FIG. 16A-FIG. 16B. Examples of representative HPLC data. Plasma ibrutinib levels were measured by HPLC 3 hours after mice were treated by oral gavage with an equal amount of free ibrutinib and LCFA-ibrutinib. The ibrutinib peaks are indicated with arrows. There was a 3-fold increase in plasma ibrutinib level in mice treated with LCFA-ibrutinib (B) compared with those treated with free ibrutinib (A) based on the measurements of the area under the curve (AUC).
LCFA-conjugated ibrutinib was synthesized and characterized (FIG. 15A-FIG. 15C). To compare drug uptake between free ibrutinib and LCFA-ibrutinib, mice were treated with an equal amount of free ibrutinib or LCFA-ibrutinib. Blood samples were collected at different time points, and analyzed for ibrutinib content by HPLC. Area under the curve (AUC) of ibrutinib was calculated to evaluate plasma drug concentration (FIG. 16A-FIG. 16B).

[3] = in human; co-formulated with SNAC; cited from earlier work
[4] = Intraperitoneal glucose tolerance test, GLP-1-Lys^26-LCFA in acid-neutralized mice; format: in vivo, male C57BL/6 mice
Experimental: FIG. 12. Additional examples of representative glucose tolerance assay results. Glucose tolerance assays were performed after treatment with free GLP-1 analogue or GLP-1-Lys^26-LCFA. Each mouse was treated orally with 100 μL 1M NaHCO3 to neutralize acid in the gastric fluid as described before. After 1 minute, the mice were treated p.o. with PBS, 100 μg free GLP-1 analogue (GLP-1), or 100 μg GLP-1-Lys^26-LCFA. The mice were then challenged with intraperitoneal injection of 2 g/kg glucose 1 hour after treatment.
as §1, with “GTT” for “glucose tolerance test (GTT)”, “treated” for “treated by oral gavage”, “GLP-1 analogue,” for “Ex4,”, “GLP-1-Lys^26-LCFA” for “Ex4-Lys^27-LCFA”, “12).” for “11).”

[5] = cited from earlier work
[6] = 100 μg p.o. after 100 μL 1M NaHCO3, 2 g/kg glucose i.p. 1 hour after treatment, 15 minutes after challenge
[7] = 100 μg p.o. after NaHCO3, 2 g/kg glucose i.p. 1 hour later

Compound: miR-34a: free microRNA-34a mimic duplex (SEQ ID. 3 and 4), unconjugated control (chain 1 UGGCAGUGUCUUAGCUGGUUGUTT; chain 2 ACAACCAGCUAAGACACUGCCATT; sense strand nucleotides 20 and 21 methylated, type of methylation not given here)
- suppression of c-Myc expression (c-Myc): not

Compound: Ex4-Lys^27-LCFA: conjugated long-chain fatty acid and exendin-4 through lysine residue 27; C12, C16 and C18 dicarboxylic acids used
- blood glucose level after glucose challenge [1, 6]: mild increase in blood glucose level
- controlling blood glucose level after gavage in the acid-neutralized GI track [1, 7]: effective in controlling blood glucose level
- levels of uptake by Caco-2 cells (fluorescent intensity, MFI) (Caco-2 cells): high uptake

Compound: C=CC(=O)N1CCCC(n2nc(-c3ccc(Oc4ccccc4)cc3)c3c(NC(=O)CCCCCCCCCCCCCCCCC(=O)O)ncnc32)C1 (centres unmarked) [LCFA-ibrutinib]
- Area under the curve (AUC) of ibrutinib in plasma (HPLC) [2]: 6.428
- increase in plasma ibrutinib level compared with free ibrutinib (based on AUC) ([2]; 3 h): 3 fold

Compound: semaglutide
- oral bioavailability [3]: barely detectable

Compound: free GLP-1: GLP-1 analogue with AIB at position 8 (SEQ ID. 2), unconjugated
- blood glucose level after glucose challenge [4, 6]: high blood glucose levels
- controlling blood glucose level after gavage in the acid-neutralized GI track [4, 7]: not

Compound: C=CC(=O)N1CCC[C@@H](n2nc(-c3ccc(Oc4ccccc4)cc3)c3c(N)ncnc32)C1 [ibrutinib]
- oral bioavailability ([5]; fasting state): 3.9%
- oral bioavailability ([5]; fed state): 8.4%

Reference: patent US20220339259A1, “ORALLY DELIVERED THERAPEUTICAL COMPOSITION AND USE THEREOF” (priority 2019, published 2022)
